From patent publication US8168651B2, “Protein kinase modulators” (Cylene Pharmaceuticals, Inc., priority 2008, dated 2012)
Like-named read-outs stand apart in the source and are kept apart here.

How the values were obtained:
[1] = molecular target: recombinant human PIM1 (Homo sapiens (Human), UniProt P11309); test: PIM-1 kinase activity in cell-free in vitro assay; format: biochemical; details: for inhibition at 0.5 µM: 500 nM compound, read-out: PIM-1: % inh 500 nM
[2] = tested on: K-562; test: Cell proliferation modulatory activity, K-562; format: cell-based; details: Homo sapiens, K562
[3] = tested on: MV-4-11; test: Cell proliferation modulatory activity, MV-4-11; format: cell-based; details: Homo sapiens, MV4-11
[4] = tested on: Jurkat; test: Cell proliferation modulatory activity, Jurkat; format: cell-based; details: Homo sapiens
[5] = molecular target: recombinant human CK2 (Homo sapiens (Human), UniProt P68400); test: CK2 assay (cell-free, 33P-ATP filter plate); format: biochemical; details: cell-free assay; for IC50: 15 um ATP, read-out: CK2 (15 um ATP) IC50; for inhibition at 0.5 µM: 500 nM compound, read-out: CK2: % inh 500 nM
[6] = tested on: HCT-116 human colorectal carcinoma cells; test: Cell-proliferation assay using Alamar Blue dye; format: cell-based; details: Homo sapiens;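 further: cells exposed to compound for about 4 days, then Alamar Blue added and dye fluorescence read after about 4 h, compared with medium-only control wells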
[7] = tested on: K-562; test: Cell proliferation modulatory activity, K-562; format: cell-based; details: Homo sapiens, K562; K-562 cells; read-out: K-562 (uM), cell proliferation modulatory activity
[8] = tested on: MV-4-11; test: Cell proliferation modulatory activity, MV-4-11; format: cell-based; details: Homo sapiens, MV4-11; MV-4-11 cells; read-out: MV-4-11 (uM), cell proliferation modulatory activity
[9] = molecular target: PIM2 (Homo sapiens (Human), UniProt Q9P1W9); test: PIM2 IC50; format: biochemical; details: Table 45
[10] = HCT-116, HCT-116, second HCT-116 column (c8), read-out: HCT-116 (uM), cell proliferation modulatory activity
[11] = HCT-116, second of two HCT-116 columns (c8), read-out: HCT-116 (uM), cell proliferation modulatory activity

Sequence of recombinant human PIM1 (P11309 whole entry): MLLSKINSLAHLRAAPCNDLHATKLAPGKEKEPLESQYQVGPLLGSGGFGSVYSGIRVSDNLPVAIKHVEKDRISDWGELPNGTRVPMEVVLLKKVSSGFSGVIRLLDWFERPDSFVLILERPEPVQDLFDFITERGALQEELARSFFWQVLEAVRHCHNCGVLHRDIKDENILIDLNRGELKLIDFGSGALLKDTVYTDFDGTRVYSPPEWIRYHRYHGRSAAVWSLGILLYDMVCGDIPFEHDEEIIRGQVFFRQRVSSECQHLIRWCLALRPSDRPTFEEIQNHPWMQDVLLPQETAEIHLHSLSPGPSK
Sequence of recombinant human CK2 (P68400 whole entry): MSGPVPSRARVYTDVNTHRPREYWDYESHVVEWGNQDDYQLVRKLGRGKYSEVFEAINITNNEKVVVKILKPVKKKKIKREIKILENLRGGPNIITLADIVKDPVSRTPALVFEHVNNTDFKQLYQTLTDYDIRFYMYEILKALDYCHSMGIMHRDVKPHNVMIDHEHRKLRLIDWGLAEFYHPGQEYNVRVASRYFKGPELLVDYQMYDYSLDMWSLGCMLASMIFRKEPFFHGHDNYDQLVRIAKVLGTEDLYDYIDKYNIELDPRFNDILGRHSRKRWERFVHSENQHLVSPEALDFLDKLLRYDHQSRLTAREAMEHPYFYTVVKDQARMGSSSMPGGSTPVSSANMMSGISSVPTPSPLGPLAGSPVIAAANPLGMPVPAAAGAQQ
Sequence of recombinant human CK2 (P67870 whole entry partner): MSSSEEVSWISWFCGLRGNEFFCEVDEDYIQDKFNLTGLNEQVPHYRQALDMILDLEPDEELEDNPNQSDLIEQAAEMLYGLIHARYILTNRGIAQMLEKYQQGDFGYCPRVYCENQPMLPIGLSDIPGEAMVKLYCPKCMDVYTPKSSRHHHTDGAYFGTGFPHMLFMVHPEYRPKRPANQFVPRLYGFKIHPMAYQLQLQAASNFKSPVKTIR
Sequence of PIM2 (Q9P1W9 whole entry): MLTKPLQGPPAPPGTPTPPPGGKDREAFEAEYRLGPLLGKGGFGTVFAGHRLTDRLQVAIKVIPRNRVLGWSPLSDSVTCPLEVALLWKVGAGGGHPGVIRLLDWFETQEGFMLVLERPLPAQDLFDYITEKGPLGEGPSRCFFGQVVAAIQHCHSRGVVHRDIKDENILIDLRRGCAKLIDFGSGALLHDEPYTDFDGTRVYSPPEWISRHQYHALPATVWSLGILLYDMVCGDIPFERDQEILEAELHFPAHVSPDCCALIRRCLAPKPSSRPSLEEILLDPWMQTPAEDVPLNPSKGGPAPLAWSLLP

| SMILES | inhibition at 0.5 µM ([1]; cell-free assay) | IC50 [4] | IC50 [5] | IC50 [6, 10] | also measured |
| --- | --- | --- | --- | --- | --- |
| O=C(O)c1ccc2c(c1)nc(Nc1ccccc1)c1nc(NCCO)ncc12 | 45.6% | – | – | – | IC50 [2]: > 10 µM; IC50 [3]: > 10 µM |
| O=C(O)c1ccc2c(c1)nc(Nc1ccccc1)c1nc(NCCN3CCOCC3)ncc12 | 30.6% | 5.7 µM | – | – | IC50 [2]: 1.16 µM; IC50 [3]: 0.358 µM |
| C#Cc1cccc(Nc2nc3cc(C(=O)O)ccc3c3cnc(NC4CCNCC4)nc23)c1 | 29% | – | – | – | IC50 [2]: > 10 µM; IC50 [3]: 0.237 µM |
| COCCNc1ncc2c(n1)c(NC1CC1)nc1cc(C(=O)O)ccc12 | 17.2% | 13.7 µM | 13 nM | > 10 µM | – |
| O=C(O)c1ccc2c(c1)nc(NC1CC1)c1nc(NCc3cccnc3)ncc12 | – | > 50 µM | 23 nM | > 10 µM | – |
| O=C(O)c1ccc2c(c1)nc(NC1CC1)c1nc(Nc3cccc(Cl)c3)ncc12 | 23.2% | 2.17 µM | 95 nM | > 10 µM | – |
| O=C(O)c1ccc2c(c1)nc(NC1CC1)c1nc(Nc3cccc(F)c3F)ncc12 | 71.7% | 2.38 µM | 17 nM | > 10 µM | – |
| O=C(O)c1ccc2c(c1)nc(NC1CC1)c1nc(NCCCO)ncc12 | -15.9% | > 50 µM | 164 nM | > 10 µM | – |
| CCOCCNc1ncc2c(n1)c(NC1CC1)nc1cc(C(=O)O)ccc12 | -8.19% | 18.1 µM | 58 nM | > 10 µM | – |
| CC(Nc1ncc2c(n1)c(NC1CC1)nc1cc(C(=O)O)ccc12)c1ccccc1 (centres unmarked) | -32.7% | 28.7 µM | 228 nM | > 10 µM | – |
| CC(C)OCCCNc1ncc2c(n1)c(NC1CC1)nc1cc(C(=O)O)ccc12 | -40.2% | 16.6 µM | 74 nM | > 10 µM | – |
| O=C(O)c1ccc2c(c1)nc(NC1CC1)c1nc(NCC3CCCO3)ncc12 (centres unmarked) | 10.5% | 21.5 µM | 42 nM | > 10 µM | – |
| CCOCCCNc1ncc2c(n1)c(NC1CC1)nc1cc(C(=O)O)ccc12 | 9.55% | 2.02 µM | 45 nM | 3.64 µM | – |
| CC(C)OCCNc1ncc2c(n1)c(NC1CC1)nc1cc(C(=O)O)ccc12 | -2.46% | 7.37 µM | 64 nM | > 10 µM | IC50 ([1]; cell-free assay): > 1100 nM |
| O=C(O)c1ccc2c(c1)nc(NC1CC1)c1nc(NCC3CC3)ncc12 | 15.7% | 4.41 µM | 8 nM | > 10 µM | – |
| CC(C)C(CO)Nc1ncc2c(n1)c(NC1CC1)nc1cc(C(=O)O)ccc12 (centres unmarked) | -8.31% | 44.7 µM | 167 nM | > 10 µM | – |
| NC(=O)c1ccc2c(c1)nc(NC1CC1)c1nc(NC3CC3)ncc12 | -10.8% | 0.504 µM | 135 nM | 1.33 µM | – |
| CNC(=O)c1ccc2c(c1)nc(NC1CC1)c1nc(NC3CC3)ncc12 | -16.2% | 0.618 µM | > 750 nM | 1.08 µM | – |
| O=C(NCc1ccccn1)c1ccc2c(c1)nc(NC1CC1)c1nc(NC3CC3)ncc12 | -17.1% | 1.95 µM | > 750 nM | 3.07 µM | – |
| COCCNC(=O)c1ccc2c(c1)nc(NC1CC1)c1nc(NC3CC3)ncc12 | -16.1% | 1.64 µM | > 750 nM | 3.87 µM | – |
| O=C(Nc1ccccc1)c1ccc2c(c1)nc(NC1CC1)c1nc(NC3CC3)ncc12 | -5.17% | 0.989 µM | > 750 nM | 3.16 µM | – |
| O=C(NCCN1CCOCC1)c1ccc2c(c1)nc(NC1CC1)c1nc(NC3CC3)ncc12 | 2.65% | 1.43 µM | > 750 nM | > 10 µM | – |
| NCCNC(=O)c1ccc2c(c1)nc(NC1CC1)c1nc(NC3CC3)ncc12 | 3.79% | 2.36 µM | > 750 nM | > 10 µM | – |
| CN(C)C(=O)c1ccc2c(c1)nc(NC1CC1)c1nc(NC3CC3)ncc12 | 1.62% | 0.583 µM | > 750 nM | 1.12 µM | – |
| O=C(O)c1ccc2c(c1)nc(NC1CC1)c1nc(Nc3ccc(F)cc3F)ncc12 | – | – | – | > 10 µM | IC50 [2]: > 10 µM; IC50 [3]: 2.29 µM |
| O=C(O)c1ccc2c(c1)nc(NC1CC1)c1nc(Nc3ccc(F)c(F)c3)ncc12 | 14.1% | – | – | > 10 µM | inhibition at 0.5 µM [5]: 96.3%; IC50 [2]: > 10 µM; IC50 [3]: 1.86 µM |
| COC(=O)c1ccc2c(c1)nc(NC1CC1)c1nc(C#N)ncc12 | 2.81% | – | – | > 10 µM | IC50 [2]: 1.34 µM |

| SMILES | inhibition at 0.5 µM ([1]; cell-free assay) | IC50 [4] | IC50 [5] | IC50 [6, 10] | also measured |
| --- | --- | --- | --- | --- | --- |
| Cc1cnc(CNC(=O)c2ccc3c(c2)nc(N2CCN(C)CC2)c2ccsc23)cn1 | 37.3% | – | – | > 10 µM | inhibition at 0.5 µM [5]: -15%; IC50 [2]: > 10 µM; IC50 [3]: > 10 µM |
| O=C(O)c1ccc2c(c1)nc(NCc1cccc3ccccc13)c1ccncc12 | 15.6% | – | – | > 10 µM | IC50 [2]: > 10 µM |
| O=C(O)c1ccc2c(c1)nc(NCCc1ccccn1)c1ccncc12 | -8.95% | – | – | > 10 µM | inhibition at 0.5 µM [5]: 96.1%; IC50 [2]: > 10 µM; IC50 [3]: > 10 µM |
| O=C(O)c1ccc2c(c1)nc(NCc1ccccn1)c1ccncc12 | 14.3% | – | – | > 10 µM | inhibition at 0.5 µM [5]: 96.6%; IC50 [2]: > 10 µM; IC50 [3]: > 10 µM |
| Cc1cccc(N2CCN(c3nc4cc(C(=O)O)ccc4c4cnccc34)CC2)c1 | 33.7% | – | – | > 10 µM | IC50 [2]: > 10 µM |
| O=C(O)c1ccc2c(c1)nc(N1CCC(N3CCOCC3)CC1)c1ccncc12 | 20.7% | – | – | > 10 µM | inhibition at 0.5 µM [5]: 90.5%; IC50 ([1]; cell-free assay): 310 nM; IC50 [2]: > 10 µM; IC50 [3]: > 10 µM |
| COc1ccc(CCNc2nc3cc(C(=O)O)ccc3c3cnccc23)cc1OC | 9.85% | – | – | > 10 µM | inhibition at 0.5 µM [5]: 99%; IC50 [2]: > 10 µM; IC50 [3]: > 10 µM |
| Fc1cc(Cl)cc(Nc2nc3cc(-c4nnn[nH]4)ccc3c3ccsc23)c1 | 22.9% | – | – | – | inhibition at 0.5 µM [5]: 45.4%; IC50 [6, 11]: > 10 µM; IC50 [7]: > 10 µM |
| FC(F)(F)c1cccc(Nc2nc3cc(-c4nnn[nH]4)ccc3c3ccsc23)c1 | 10.8% | – | – | – | inhibition at 0.5 µM [5]: 17.4%; IC50 [6, 11]: > 10 µM; IC50 [7]: > 10 µM; IC50 [8]: 1.1 µM |
| Fc1ccc(Nc2nc3cc(-c4nnn[nH]4)ccc3c3ccsc23)cc1Cl | 29.1% | – | – | – | inhibition at 0.5 µM [5]: 37.6%; IC50 [6, 11]: > 10 µM; IC50 [7]: > 10 µM; IC50 [8]: 0.721 µM |
| Clc1ccc(Nc2nc3cc(-c4nnn[nH]4)ccc3c3ccsc23)cc1 | 40.4% | – | – | – | inhibition at 0.5 µM [5]: 23.9%; IC50 [6, 11]: > 10 µM; IC50 [7]: > 10 µM; IC50 [8]: > 10 µM |
| Fc1ccc(Nc2nc3cc(-c4nnn[nH]4)ccc3c3ccsc23)cc1 | 54.7% | – | – | – | inhibition at 0.5 µM [5]: 30.3%; IC50 [6, 11]: > 10 µM; IC50 ([1]; cell-free assay): 738 nM; IC50 [7]: > 10 µM; IC50 [8]: > 10 µM |
| c1cc(-c2nc[nH]n2)c2nc(NCc3ccncc3)c3ccncc3c2c1 | – | – | – | – | IC50 ([1]; Table 45): < 500 nM; IC50 [9]: < 1000 nM |
| c1ccc(CNc2nc3c(-c4nc[nH]n4)cccc3c3cnccc23)nc1 | – | – | – | – | IC50 ([1]; Table 45): < 500 nM; IC50 [9]: < 500 nM |
| CN1CCC(CNc2nc3c(-c4nnc[nH]4)cccc3c3cnccc23)CC1 | – | – | – | – | IC50 ([1]; Table 45): < 500 nM; IC50 [9]: > 1100 nM |
| c1cncc(CNc2nc3c(-c4nc[nH]n4)cccc3c3cnccc23)c1 | – | – | – | – | IC50 ([1]; Table 45): < 500 nM; IC50 [9]: > 1100 nM |
| CN1CCN(c2nc3c(-c4nc[nH]n4)cccc3c3cnccc23)CC1 | – | – | – | – | IC50 ([1]; Table 45): < 1000 nM; IC50 [9]: > 1100 nM |
| NC(=O)c1cc(F)cc2c1nc(Nc1cccc(Cl)c1)c1ccncc12 | – | – | – | – | IC50 ([1]; Table 45): < 1000 nM; IC50 [9]: > 1100 nM |
| c1cc(-c2nc[nH]n2)c2nc(NCCN3CCOCC3)c3ccncc3c2c1 | – | – | – | – | IC50 ([1]; Table 45): < 5000 nM; IC50 [9]: > 1100 nM |
| CN(C)CCNc1nc2c(-c3nc[nH]n3)cccc2c2cnccc12 | – | – | – | – | IC50 ([1]; Table 45): < 5000 nM; IC50 [9]: > 1100 nM |
| CCN1CCCC1CNc1nc2c(-c3nc[nH]n3)cccc2c2cnccc12 (centres unmarked) | – | – | – | – | IC50 ([1]; Table 45): > 1100 nM; IC50 [9]: > 1100 nM |
| O=C(O)c1cc(F)cc2c1nc(Nc1cccc(Cl)c1)c1ccncc12 | – | – | – | – | IC50 ([1]; Table 45): > 1100 nM; IC50 [9]: > 1100 nM |
| O=C(O)c1cc(F)cc2c1nc(Nc1cccc(Cl)c1)c1cnccc12 | – | – | – | – | IC50 ([1]; Table 45): > 1100 nM; IC50 [9]: > 1100 nM |
| CN(C)CCNc1nc2cc(C(=O)O)ccc2c2cnc(NC3CC3)nc12 [drawing 1642] | -37.5% | 34 µM | – | > 10 µM | – |
| CCCNc1ncc2c(n1)c(NC1CC1)nc1cc(C(=O)O)ccc12 [drawing 1645] | 13.2% | 9.37 µM | – | – | IC50 ([6]; HCT-116, read-out: HCT-116 (uM), cell proliferation modulatory activity, HCT-116, second HCT-116 column (c8)): > 10 µM |
| Fc1cc(-c2nnc[nH]2)c2nc(Nc3cccc(Cl)c3)c3ccncc3c2c1 [drawing 2259] | – | – | – | – | IC50 ([1]; Table 45): < 1000 nM; IC50 [9]: < 1000 nM |
| Fc1cc(-c2nnc[nH]2)c2nc(Nc3cccc(Cl)c3)c3ccncc3c2c1 [drawing 2269] | – | – | – | – | IC50 ([1]; Table 45): > 1100 nM; IC50 [9]: > 1100 nM |
